According to patent US20230416247A1, “DRUG-LIKE MOLECULES AND METHODS FOR THE THERAPEUTIC TARGETING OF MICRORNA-21” (University of Washington, priority 2020, published 2023):

Test system: mature miR-10b in AGS cells
Test: qRT-PCR of mature miR-10b in AGS cells
Type: cell-based, human
Conditions: 10 nmoles, 48 hours, relative to DMSO control
Procedure: FIGS. 14A-14D compare levels of mature miR-10b and pre-miR-10b measured in gastric adenocarcinoma (AGS) (FIGS. 14A and 14B, respectively) and pancreatic cancer cell line (ASPC 1) (FIGS. 14C and 14D, respectively), normalized to internal controls (U6 or U8 snRNA), in the presence of 10 nmoles of palbociclib (a negative control not expected to directly affect miRNA levels) and compounds −0045 and −0052, 48 hours after incubation, relative to DMSO control, and measured by standard qRT-PCR. We notice that levels of pre-miR-10b are very low in both cell lines, rendering the data very uncertain. Statistically significant changes are labeled with asterisks.
In order to investigate whether inhibition was specific to miR-21, levels of mature miR-10b and pre-miR-10b were examined in the same cell lines (FIGS. 14A-14D); this is another oncogenic microRNA implicated in metastasis. […]
Quantitative real time PCR analysis. […] RNA concentration was assessed with the NanoDrop ND-1000 spectrophotometer (ThermoFisher Scientific). […] Expression of miR-21 was assessed utilizing the TaqMan microRNA assay (Applied Biosystems). […] All experiments were performed in triplicate, with all samples normalized to the internal controls and relative expression levels calculated using the 2^ΔΔCt method.

SMILES: O=c1[nH]c(Nc2ccc(N3CCNCC3)cn2)nc2cnccc12 [Compound 30]
- reduction of levels of mature miR-10b: about 2 fold
